Molecules are shown by their SMILES.

This assay has as its target T1, human recombinant, purified wild type His-B-Raf protein kinase (Homo sapiens, UniProt P15056).
T1 construct: His
Briefly: B-Raf In Vitro ELISA Assay. As to conditions: 2.5 nM B-Raf, 0.15 μM MEK1, 10 μM ATP; 1 hour preincubation at 25° C.; phosphorylation of MEK1. The format is biochemical. As to the method: B-Raf In Vitro ELISA Assay
Activity of human recombinant, purified wild type His-B-Raf protein kinase was determined in vitro using an enzyme-linked immunosorbent assay (ELISA) assay format, which measures phosphorylation of the B-Raf substrate, human recombinant, purified His-derived (detagged) MEK1. The reaction utilized 2.5 nM B-Raf, 0.15 μM MEK1 and 10 μM adenosine triphosphate (ATP) in 40 mM N-(2-hydroxyethyl)piperazine-N′-(2-ethanesulfonic acid hemisodium salt (HEPES), 5 mM 1,4-dithio-DL-threitol (DTT), 10 mM MgCl2, 1 mM ethylenediaminetetraacetic acid (EDTA) and 0.2 M NaCl (1×HEPES buffer), with or without compound at various concentrations, in a total reaction volume of 25 μl in 384 well plates. B-Raf and compound were preincubated in 1×HEPES buffer for 1 hour at 25° C. Reactions were initiated with addition of MEK1 and ATP in 1×HEPES buffer and incubated at 25° C. for 50 minutes and reactions stopped by addition of 10 μl 175 mM EDTA (final concentration 50 mM) in 1×HEPES buffer. 5 μl of the assay mix was then diluted 1:20 into 50 mM EDTA in 1×HEPES buffer, transferred to 384 well black high protein binding plates and incubated overnight at 4° C. […] Blue fluorescent product was detected at excitation 325 nm and emission 420 nm using a TECAN Ultra plate reader. Data was graphed and IC50s calculated using Excel Fit (Microsoft).

T1 sequence (P15056 whole entry): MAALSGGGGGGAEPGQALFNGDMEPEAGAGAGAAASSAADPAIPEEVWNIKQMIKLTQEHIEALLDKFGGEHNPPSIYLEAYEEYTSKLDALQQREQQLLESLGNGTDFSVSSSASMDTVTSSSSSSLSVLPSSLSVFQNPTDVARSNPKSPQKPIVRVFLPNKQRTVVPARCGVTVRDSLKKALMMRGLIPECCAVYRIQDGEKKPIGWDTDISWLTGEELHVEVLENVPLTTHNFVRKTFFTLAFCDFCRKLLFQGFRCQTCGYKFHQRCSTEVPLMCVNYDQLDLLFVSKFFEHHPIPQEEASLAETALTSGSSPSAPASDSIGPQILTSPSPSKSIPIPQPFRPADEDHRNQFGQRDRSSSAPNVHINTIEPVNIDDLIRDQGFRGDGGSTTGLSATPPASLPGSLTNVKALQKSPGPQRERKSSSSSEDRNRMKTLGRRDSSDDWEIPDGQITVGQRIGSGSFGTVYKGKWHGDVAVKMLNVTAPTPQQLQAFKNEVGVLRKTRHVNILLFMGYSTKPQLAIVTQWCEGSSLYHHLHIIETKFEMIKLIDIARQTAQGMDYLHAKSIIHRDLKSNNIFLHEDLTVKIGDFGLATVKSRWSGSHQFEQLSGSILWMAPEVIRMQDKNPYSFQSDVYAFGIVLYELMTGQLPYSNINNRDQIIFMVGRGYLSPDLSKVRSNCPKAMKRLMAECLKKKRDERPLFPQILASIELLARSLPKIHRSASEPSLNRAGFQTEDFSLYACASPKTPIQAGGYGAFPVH

With `Cc1ccc(NC(=O)c2cccc(C(C)(C)C#N)c2)cc1NC(=O)c1ccc2nc[nH]c(=O)c2c1` [Example 1, N-(5-{[3-(1-Cyano-1-methylethyl)benzoyl]amino}-2-methylphenyl)-4-oxo-3,4-dihydroquinazoline-6-carboxamide], the IC50 came out at 1 nM.
For `Cc1ccc(NC(=O)c2cccc(C(C)(C)C#N)c2)cc1NC(=O)c1ccc2ncn(C)c(=O)c2c1` [Example 6, N-(5-{[3-(1-Cyano-1-methylethyl)benzoyl]amino}-2-methylphenyl)-3-methyl-4-oxo-3,4-dihydroquinazoline-6-carboxamide], the IC50 stood at 3 nM.

The record behind these values is patent publication US20090054469A1, “QUINAZOLINONE DERIVATIVES AND THEIR USE AS B-RAF INHIBITORS” (ASTRAZENECA AB, priority 2005, published 2009).
